These results are taken from US10591485B2, “Peptide tags for fluorescent labelling of proteins” (UNIVERSITY OF OTTAWA, priority 2015, dated 2020).

“Also recorded” adds a separate entry of the source. Where a SMILES comes first, the peptide text is derived from it.

Data set [1] in a line: pH-rate profile of MBP-dC10 mutants with dansyl-dimaleimide fluorogen, pH 7.50-9.00. The class given is physicochemical. The note with it: from horizontal displacement of best fit lines of pH-rate profile, FIG. 8. The source says: A pH range between 7.50 and 9.00 was explored to determine the dependence of the second order rate constant on pH. Only several mutants from libraries II and III were chosen for this pH study: Triple mutants containing lysine and arginine (black line), triple mutants containing histidine and lysine or arginine (light grey line), double mutants (dark grey line) and parent dC10 (dashed line).
Considering the relative reactivity of the members of all three mutant libraries, additional studies were undertaken to attempt to quantify the effect of positively charged residues on the acidity of the cysteine residue thiol groups. […]
Libraries I, II and III were assayed using a plate reader: briefly, in a reaction scale of 200 μL, 50 μM MBP-dC10 (or variants) and 50 μM dansyl-dM10 1 were mixed in HEPES 50 mM pH 7.5 buffer in the presence of TCEP 1 mM. Fluorescence increase was followed at 28° C. long after completion of the reaction (2 hours) using the Synergy™ H4 Hybrid Multi-Mode Microplate Reader (BioTek, Winooski, Vt., United States) plate reader at 515 nm, upon excitation at 330 nm of the dansyl fluorophore of 1. Second order reaction constants were determined using the initial slope and the final plateau of each kinetic curve. […] Fluorogenic reactions were performed in a plate reader as described above, in duplicate.

Data set [2] can be described thus: Kinetics of addition of fluorogen 1 to MBP-dC10 histidine mutants, Cary Eclipse fluorimeter, 20° C. The class given is biochemical. The following applies: fluorogen 1, 20° C., FIG. 4. How it is done:
To start, we used fluorogen 1.
Reactivity of each MBP-dC10 variant was assessed by determining the second order rate constant of the fluorogenic labelling reaction with a dansyl-dimaleimide fluorogenic molecule, referred to as dansyl-dM10 1 (FIG. 11). Dansyl-dM10 was synthesized as described (Caron, K. et al., Org. Biomol. Chem. 9: 185-197, 2011). Initial kinetic studies performed on MBP-dC10 histidine mutants S2H, R9H, A7H and S2H-A17H were done at the scale of 500 μL in the established conditions described below, using a Cary Eclipse Fluorimeter (Varian, Inc., Mississauga, Ontario, Canada) at 20° C.

A short description of data set [3]: In vitro reactivity of dC10 and dC10* with fluorogen 4. The class given is biochemical. The note with it: fluorogen 4, 50 μM equimolar, 28° C., FIG. 13. How it is done: (§1) Second order rate constant ratios are shown for fluorogen 3 (grey), and fluorogen 4 (black). Ratios were obtained by normalizing all rate constants to the rate constant of parent MBP-dC10. Absolute values of second order rate constants in M^−1min^−1 are shown for each fluorogen and dC10 or dC10*, and were obtained using equimolar concentration of 50 μM of fluorogen and test protein, at 28° C. Results were obtained at least in duplicate.
(§2) To extend the results shown above with fluorogens 1 and 2, we tested whether the labelling of dC10* (dC10-A3KA16RA17K) with other coumarin fluorogens would also show a kinetic advantage compared to dC10.

The nature of data set [4]: In vitro reactivity of dC10 and dC10* with fluorogen 3. It counts as biochemical. The following applies: fluorogen 3, 50 μM equimolar, 28° C., FIG. 13. How it is done:
as §1, §2

Data set [5] in a line: Fluorogenic addition reaction kinetics of MBP-dC10 libraries I, II and III with dansyl-dM10 fluorogen 1, plate reader, 28° C. It counts as biochemical. The following applies: for reactivity of single mutants A17X (second order rate constant), in words: fluorogen 1, 50 μM equimolar, pH 7.5, 28° C., FIGS. 6 and 7; for increase in reactivity towards a dimaleimide fluorogen, triple mutants: fluorogen 1, relative to parent dC10, FIG. 10. How it is done:
Library I with point mutants at position A17 is represented in dark grey, library II with double mutants A16-A17 is represented in light grey, and library III with triple mutants A3-A16-A17 is represented in black. The rate constant for parent MBP-dC10 is represented in white. All measurements were performed at least in duplicate. The reactivity of each single mutant of MBP-dC10 was evaluated through their reaction with dansyl-dM10 fluorogen 1 (Caron, K. et al., Org. Biomol. Chem., 9: 185-197, 2011), commonly used for test purposes. Equimolar concentrations of 50 μM of fluorogen 1 and MBP-dC10 variant were used in pH 7.5 buffer HEPES 50 mM, supplemented with 1 mM of TCEP reducing agent to reduce disulfide bonds that could form during protein purification or storage. […] Progress curves of the fluorogenic addition reaction were acquired with a plate reader that allowed us to study a large number of samples at the same time. Since the dansyl fluorophore is sensitive to its environment, the reaction of each MBP-dC10 variant led to an end point of slightly different fluorescence intensity. We used a simple second order kinetic model A+B→C where reactants A and B were used in equimolar concentrations. The product C is the only fluorescent species in the milieu and its appearance can be directly followed by increase of fluorescence. Use of this model implies that the second thiol addition is extremely fast due to its intramolecular character, and that the second order kinetic constant k2 depends exclusively on the first thiol addition. This reasonable approximation allowed us to evaluate very simply the overall dC10 reactivity modulated by the presence of stabilizing residues in the proximity of cysteines C6 and C13. Reactivity of each MBP-dC10 variant was assessed by determining the second order rate constant of the fluorogenic labelling reaction with a dansyl-dimaleimide fluorogenic molecule, referred to as dansyl-dM10 1 (FIG. 11). […] Biomol. Chem. 9: 185-197, 2011). Initial kinetic studies performed on MBP-dC10 histidine mutants S2H, R9H, A7H and S2H-A17H were done at the scale of 500 μL in the established conditions described below, using a Cary Eclipse Fluorimeter (Varian, Inc., Mississauga, Ontario, Canada) at 20° C. […] Libraries I, II and III were assayed using a plate reader: briefly, in a reaction scale of 200 μL, 50 μM MBP-dC10 (or variants) and 50 μM dansyl-dM10 1 were mixed in HEPES 50 mM pH 7.5 buffer in the presence of TCEP 1 mM. Fluorescence increase was followed at 28° C. long after completion of the reaction (2 hours) using the Synergy™ H4 Hybrid Multi-Mode Microplate Reader (BioTek, Winooski, Vt., United States) plate reader at 515 nm, upon excitation at 330 nm of the dansyl fluorophore of 1. Second order reaction constants were determined using the initial slope and the final plateau of each kinetic curve. All reactions were performed in duplicate to quadruplicate. For pH dependent kinetics, MBP-dC10 variants were dialysed into a buffer of desired pH, containing 50 mM of buffering salt (pH 7.50-8.00: HEPES; pH 8.25-8.75: Tris-HCl; pH 9.00: CHES) and 1 mM TCEP, overnight at 4° C., with gentle stirring. Fluorogenic reactions were performed in a plate reader as described above, in duplicate.

For `CC(C)C[C@H](N)C(=O)N[C@@H](CO)C(=O)N[C@@H](CCCCN)C(=O)N[C@@H](C)C(=O)N[C@@H](CCC(=O)O)C(=O)N[C@@H](CS)C(=O)N[C@@H](C)C(=O)N[C@@H](C)C(=O)N[C@@H](CCCNC(=N)N)C(=O)N[C@@H](CCC(=O)O)C(=O)N[C@@H](C)C(=O)N[C@@H](C)C(=O)N[C@@H](CS)C(=O)N[C@@H](CCCNC(=N)N)C(=O)N[C@@H](CCC(=O)O)C(=O)N[C@@H](CCCNC(=N)N)C(=O)N[C@@H](CCCCN)C(=O)N[C@@H](C)C(=O)N[C@@H](CCCNC(=N)N)C(=O)N[C@@H](C)C(=O)NCC(=O)NCC(=O)N[C@@H](CCCCN)C(=O)O` [dC10-A3KA16RA17K] (H-LSKAECAAREAACRERKARAGGK-OH; N-terminus and C-terminus assumed), in data set [1], the “pKa lower than that of the parent dC10 sequence” value is 0.70 units. As to “L1HAAECAAREAACREAAARAGGK23 (LHAAECAAREAACREAAARAGGK) [dC10-S2H]”, in data set [2], the “reactivity (second order kinetic constant) compared with parent dC10” value (“reactivity … compared with parent dC10” for short) is “did not appear to be more reactive than dC10”.

In the case of “L1HAAECAAREAACREAHARAGGK23 (LHAAECAAREAACREAHARAGGK) [dC10-S2HA17H]”, the “reactivity … compared with parent dC10” value in data set [2] is reported as “more reactive than the parent dC10”. On to “L1SAAECAAHEAACREAAARAGGK23 (LSAAECAAHEAACREAAARAGGK) [dC10-R9H]”, for which the “reactivity … compared with parent dC10” value in data set [2] is “did not appear to be more reactive than dC10”.

Turning to “L1SAAECAAREAACREAAARAGGK23 (LSAAECAAREAACREAAARAGGK) [dC10, previously described parent dicysteine alpha-helical peptide tag]”, the “rate enhancement compared to dC10” value is recorded as 2 fold in data set [3] and 4 fold in data set [4].

For the compound “L1SAAECAAREAACREAHARAGGK23 (LSAAECAAREAACREAHARAGGK) [dC10-A17H]”, in data set [5], the “reactivity of single mutants A17X (second order rate constant), in words” value is on record as “reacts faster than the parent dC10 peptide tag; also recorded: does not react as fast as the A17K mutant”.

“L1SAAECAAREAACREAKARAGGK23 (LSAAECAAREAACREAKARAGGK) [dC10-A17K]”: the “reactivity of single mutants A17X (second order rate constant), in words” value in data set [5] was “best dC10 single mutant”. For the compound “L1SAAECAAREAACREHKARAGGK23 (LSAAECAAREAACREHKARAGGK) [dC10-A16HA17K]”, the “reactivity compared among double mutants A16X-A17K” value in data set [5] (fluorogen 1, FIG. 10) is “not as reactive as double mutants A16K-A17K and A16R-A17K”. With “L1SAAECHAREAACREAAARAGGK23 (LSAAECHAREAACREAAARAGGK) [dC10-A7H]”, the “reactivity … compared with parent dC10” value in data set [2] is “did not appear to be more reactive than dC10”. As for “L1SKAECAAREAACREKKARAGGK23 (LSKAECAAREAACREKKARAGGK) [dC10-A3KA16KA17K]”, in data set [5], the “increase in reactivity towards a dimaleimide fluorogen, triple mutants” value (“increase” below) was approximately 10 fold. In the case of “L1SRAECAAREAACREKKARAGGK23 (LSRAECAAREAACREKKARAGGK) [dC10-A3RA16KA17K]”, the “increase” value in data set [5] was approximately 10 fold. For “L1SRAECAAREAACRERKARAGGK23 (LSRAECAAREAACRERKARAGGK) [dC10-A3RA16RA17K]”, in data set [5], the “increase” value is approximately 10 fold.
